Measured values published in patent publication US10947253B2, “Fused polycyclic dimers” (Ankh Life Sciences Limited, priority 2019, dated 2021).

Legend:
A2780 = assay: MTT growth inhibition (in vitro cytotoxicity), A2780; assay type: cell-based; conditions: Homo sapiens, average IC50
Experimental: (§1) The following Table sets forth the IC50 values of harmaline and quinoline analogs against 23 human cancer cell lines. Growth inhibition effects (in vitro cytotoxicity) on pancreatic, endometrial, breast, lung, ovarian, renal, cervical, lymphoma, and myeloma cancer cells were determined by MTT assays and represented by average IC50 values. In the Table, the results are given in terms of μM, and nd=not determined.

HCC70 = assay: MTT growth inhibition (in vitro cytotoxicity), HCC70; assay type: cell-based; conditions: Homo sapiens, average IC50
Experimental: as §1

DoHH-2 = assay: MTT growth inhibition (in vitro cytotoxicity), DoHH-2; assay type: cell-based; conditions: Homo sapiens, average IC50
Experimental: as §1

KMM-1 = assay: MTT growth inhibition (in vitro cytotoxicity), KMM-1; assay type: cell-based; conditions: Homo sapiens, average IC50
Experimental: as §1

MIA Paca-2 = assay: MTT growth inhibition (in vitro cytotoxicity), MIA Paca-2; assay type: cell-based; conditions: Homo sapiens, average IC50
Experimental: as §1

RPMI-8226 = assay: MTT growth inhibition (in vitro cytotoxicity), RPMI-8226; assay type: cell-based; conditions: Homo sapiens, average IC50
Experimental: as §1

A498 = assay: MTT growth inhibition (in vitro cytotoxicity), A498; assay type: cell-based; conditions: Homo sapiens, average IC50
Experimental: as §1

MOLP-8 = assay: MTT growth inhibition (in vitro cytotoxicity), MOLP-8; assay type: cell-based; conditions: Homo sapiens, average IC50
Experimental: as §1

H1975 (EGFR mut) = assay: MTT growth inhibition (in vitro cytotoxicity), H1975 (EGFR mut); assay type: cell-based; conditions: Homo sapiens, NCI-H1975, average IC50
Experimental: as §1

L363 = assay: MTT growth inhibition (in vitro cytotoxicity), L363; assay type: cell-based; conditions: Homo sapiens, L-363, average IC50
Experimental: as §1

JIM1 = assay: MTT growth inhibition (in vitro cytotoxicity), JIM1; assay type: cell-based; conditions: Homo sapiens, average IC50
Experimental: as §1

ASPC-1 = assay: MTT growth inhibition (in vitro cytotoxicity), ASPC-1; assay type: cell-based; conditions: Homo sapiens, ASPC1, average IC50
Experimental: as §1

MDA-MB-468 = assay: MTT growth inhibition (in vitro cytotoxicity), MDA-MB-468; assay type: cell-based; conditions: Homo sapiens, average IC50
Experimental: as §1

HEC-1a = assay: MTT growth inhibition (in vitro cytotoxicity), HEC-1a; assay type: cell-based; conditions: Homo sapiens, average IC50
Experimental: as §1

H1650(EGFR mut) = assay: MTT growth inhibition (in vitro cytotoxicity), H1650(EGFR mut); assay type: cell-based; conditions: Homo sapiens, NCI-H1650, average IC50
Experimental: as §1

AN3CA = assay: MTT growth inhibition (in vitro cytotoxicity), AN3CA; assay type: cell-based; conditions: Homo sapiens, AN3-CA, average IC50
Experimental: as §1

BxPC-3 = assay: MTT growth inhibition (in vitro cytotoxicity), BxPC-3; assay type: cell-based; conditions: Homo sapiens, average IC50
Experimental: as §1

FaDu = assay: MTT growth inhibition (in vitro cytotoxicity), FaDu; assay type: cell-based; conditions: Homo sapiens, average IC50
Experimental: as §1

MDA-MB-231 = assay: MTT growth inhibition (in vitro cytotoxicity), MDA-MB-231; assay type: cell-based; conditions: Homo sapiens, average IC50
Experimental: as §1

A2780CP = assay: MTT growth inhibition (in vitro cytotoxicity), A2780CP; assay type: cell-based; conditions: Homo sapiens, A2780C/P, average IC50
Experimental: as §1

KMS-34 = assay: MTT growth inhibition (in vitro cytotoxicity), KMS-34; assay type: cell-based; conditions: Homo sapiens, average IC50
Experimental: as §1

SiHA = assay: MTT growth inhibition (in vitro cytotoxicity), SiHA; assay type: cell-based; conditions: Homo sapiens, average IC50
Experimental: as §1

OCI-LY3 = assay: MTT growth inhibition (in vitro cytotoxicity), OCI-LY3; assay type: cell-based; conditions: Homo sapiens, average IC50
Experimental: as §1

Metabolic half-life = assay type: in vitro ADME; conditions: read-out: metabolic half-lives
human cancer cell lines = assay: Cancer cell growth inhibition, summary over cell lines; assay type: cell-based; conditions: cell lines not specified, read-out: cancer cell growth inhibition (IC50)
Experimental: as §1

SMILES	IC50 (A2780) [µM]	IC50 (HCC70) [µM]	IC50 (DoHH-2) [µM]	IC50 (KMM-1) [µM]	IC50 (MIA Paca-2) [µM]	IC50 (RPMI-8226) [µM]	IC50 (A498) [µM]	IC50 (MOLP-8) [µM]	IC50 (H1975 (EGFR mut)) [µM]	IC50 (L363) [µM]	IC50 (JIM1) [µM]	IC50 (ASPC-1) [µM]	IC50 (MDA-MB-468) [µM]	IC50 (HEC-1a) [µM]	IC50 (H1650(EGFR mut)) [µM]	IC50 (AN3CA) [µM]	IC50 (BxPC-3) [µM]	IC50 (FaDu) [µM]	IC50 (MDA-MB-231) [µM]	IC50 (A2780CP) [µM]	other results
c1ccc(C(Cc2ccc3ccccc3n2)Cc2ccc3ccccc3n2)cc1 [Compound 17, 2,2′-(2-phenylpropane-1,3-diyl)diquinoline]	13.3	17.2	6.9	7.99	13.3	7.92	21.9	6.56	30.1	7.99	11	28.7	25.8	25.4	24.6	9.35	7.64	18.6	14.5	9	IC50 (KMS-34): 7.85 µM; IC50 (SiHA): 23.5 µM; IC50 (OCI-LY3): 23.8 µM
COc1cc(C(Cc2nccc3ccccc23)Cc2nccc3ccccc23)ccc1O [Compound 13, 4-(1,3-di(isoquinolin-1-yl)propan-2-yl)-2-methoxyphenol]	27.2	37.2	19.5	14.8	19.7	18	38.5	9.71	42.2	29.2	29.2	49	19.6	39.8	38.1	19.5	20.1	33.6	28.2	25.1	IC50 (KMS-34): 11.8 µM; IC50 (SiHA): 45.2 µM; IC50 (OCI-LY3): 36.7 µM
COc1ccc2[nH]c3c(c2c1)CCN=C3CCCC1=NCCc2c1[nH]c1ccc(OC)cc21 [Compound 7, 1,3-bis(6-methoxy-4,9-dihydro-3H-pyrido[3,4-b]indol-1-yl)propane]	2.54	5.13	2.41	5.18	4.54	1.97	5.39	1.88	5.77	2.47	6.15	7.9	2.6	7.02	4.95	3.01	3.21	2.34	3.12	4.12	half-life (Metabolic half-life): 2.6 ± 0.124 h; IC50 (human cancer cell lines): 0.6 to 2 µM; IC50 (KMS-34): 4.41 µM; IC50 (SiHA): 12.7 µM; IC50 (OCI-LY3): 8.85 µM
COc1ccc2[nH]c3c(c2c1)CCN=C3CC(C)(C)CC1=NCCc2c1[nH]c1ccc(OC)cc21 [Compound 8, 1,1′-(2,2-dimethylpropane-1,3-diyl)bis(6-methoxy-4,9-dihydro-3H-pyrido[3,4-b]indole)]	1.38	1.3	2.21	1.49	1.22	0.81	1.71	0.67	2.08	1.21	2.59	2.07	1.9	2.22	1.78	1.96	0.95	0.98	1.5	2.23	half-life (Metabolic half-life): 6.88 ± 1.94 h; IC50 (human cancer cell lines): 0.6 to 2 µM; IC50 (KMS-34): 1.7 µM; IC50 (SiHA): 2.89 µM; IC50 (OCI-LY3): 2.59 µM
COc1ccc2c3c([nH]c2c1)C(CC(CC1=NCCc2c1[nH]c1cc(OC)ccc21)c1ccccc1)=NCC3 [Compound 6, 1,1′-(2-phenylpropane-1,3-diyl)bis(7-methoxy-4,9-dihydro-3H-pyrido[3,4-b]indole)]	2.95		1.98	1.91	1.85					1.4	2.22	2.08						1.58			IC50 (human cancer cell lines): 4 to 7 µM
COc1ccc2c3c([nH]c2c1)C(CC(CC1NCCc2c1[nH]c1cc(OC)ccc21)c1ccc(O)c(OC)c1)NCC3 (stereo not shown) [Compound 10, 4-(1,3-bis(7-methoxy-2,3,4,9-tetrahydro-1H-pyrido[3,4-b]indol-1-yl)propan-2-yl)-2-methoxyphenol]	6.14		2.24	2.53	2.53					2.17	2.27	4.62						2.61			
COc1ccc2[nH]c3c(c2c1)CCN=C3CCCCC1=NCCc2c1[nH]c1ccc(OC)cc21 [Compound 9, 1,4-bis(6-methoxy-4,9-dihydro-3H-pyrido[3,4-b]indol-1-yl)butane]	11.6	11.9	6.48	12.2	6.58	5.54	19.2	3.68	19.1	8.34	21.1	20.2	7.09	20.7	15.1	20.7	10.7	6.82	19.4	17.8	IC50 (KMS-34): 15.1 µM; IC50 (SiHA): 19.7 µM; IC50 (OCI-LY3): 6.99 µM
